Measurements taken from patent US9809551B2, “Solid forms of Ivacaftor and processes for the preparation thereof” (Apotex Inc., priority 2013, dated 2017).

Assay: Storage stability of Ivacaftor APO-I polymorph at 25±2° C. / 60%±5% RH
Assay type: physicochemical
Procedure: Ivacaftor APO-I polymorph samples were packed in an inner antistatic polyethylene bag sealed with a cable tie encased within a heat sealed composite aluminum out bag under nitrogen within a HDPE drum. The samples were then tested for stability after storing at 25±2° C. with 60%±5% relative humidity (RH). Impurities, drug concentrations, polymorph stability and other parameters were measured at intervals during the storage.

CC(C)(C)c1cc(C(C)(C)C)c(NC(=O)c2c[nH]c3ccccc3c2=O)cc1O [Ivacaftor APO-I polymorph, N-(2,4-di-tert-butyl-5-hydroxyphenyl)-1,4-dihydro-4-oxoquinoline-3-carboxamide]
Assay (by HPLC) (12 months): 99.8%
Description (12 months): Off white
Assay (by HPLC) (Initial): 99.1%
Description (Initial): Off white
XRPD (polymorph stability) (Initial): APO-I
